{"source": "patent US20070078262A1", "about": "“Thiomorpholino steroid compounds, the use thereof for the preparation of meiosis-regulating medicaments and method for the preparation thereof” (SCHERING AKTIENGESELLSCHAFT, priority 2003, published 2007)", "test_system": "Cumulus Enclosed Oocytes (CEOs)", "assay": "Cumulus enclosed oocyte assay (meiosis activation in Hx-medium)", "type": "cell-based, mice (C57BL/6J×DBA/2J F1)", "from_the_text": "Activation of MI arrested oocytes can be assessed by the disappearance of the germinal vesicle (GV). The disappearance of the GV, called germinal vesicle breakdown (GVB) is followed by the extrusion of the first polar body (PB) (C. Grøndahl, J. L. Ottesen, M. Lessi, P. Faarup, A. Murray, F C Grønvald, C. Hegele-Hartung, I. Ahnfelt-Rønne, “Meiosis-activating sterol promotes resumption of meiosis in mouse oocytes cultured in vitro in contrast to related oxysterols”, Biol. Reprod., 58, 1297-1302 (1998); C. Hegele-Hartung, J. Kuhnke, M. Lessi, C. Grøndahl, J. Ottesen, H. M. Beier, S. Eisner, U. Eichenlaub-Ritter, “Nuclear and cytoplasmic maturation of mouse oocytes after treatment with synthetic meiosis-activating sterol in vitro”, Biol. Reprod., 61, 1362-1372 (1999)).\nCumulus Enclosed Oocytes (CEOs) were obtained from immature female mice (C57BL/6J×DBA/2J F1) weighing 13-16 grams, that were kept under controlled temperature (20-22° C.), light (lights on 06:00-18:00) and relative humidity (50-70%). The mice received an intra-peritoneal injection of 0.2 ml gonadotropins containing 20 IU FSH. 48 hours later the animals were killed by cervical dislocation. The ovaries were dissected out and the oocytes were isolated in Hx-medium (see below) under a stereomicroscope by manual rupture of the follicles using a pair of 27-gauge needles. Cumulus enclosed oocytes displaying an intact germinal vesicle were placed in α-minimum essential medium (α-MEM without ribonucleosides supplemented with 8 mg/ml Human Serum Albumin (HSA), 0.23 mM pyruvate, 2 mM glutamine, 100 IU/ml penicillin and 100 μg/ml streptomycin). To maintain the oocytes in the germinal vesicle stage this medium was supplemented with 3 mM hypoxanthine, designated as Hx-medium.\nThe CEOs (35-45 CEOs in 0.4 ml Hx-medium) were cultured in a humidified atmosphere of 5% CO2 in air for 24 hours at 37° C. One control well (identical medium with no addition of test compound) was always cultured simultaneously with test wells.\nBy the end of the culture period the number of CEOs with germical vesicle (GV), germinal vesicle breakdown (GVB) and polar bodies (PB), respectively, were counted. The % GVB, defined as the percentage of CEOs undergoing GVB per total number of CEOs in that well, was calculated as: % GVB=(number of GVB+number of PB/total number of CEOs)×100\nThe % PB was defined as the percentage of CEOs displaying one extruded polar body per total number of CEOs in that well.\nFor each compound two experiments were performed and the results compared to Hx-medium as a control and FF-MAS at a concentration of 10 μM.", "data": [{"molecule": "C[C@H](CN1CCSCC1)[C@H]1CC=C2C3=C(CC[C@@]21C)[C@@]1(C)CC[C@H](O)C(C)(C)[C@@H]1CC3", "note": "[Compound IA, (20S)-20-[(thiomorpholin-4-yl)methyl]-4,4-dimethyl-5α-pregna-8,14-dien-3β-ol]", "values": [{"measurement": "efficiency of meiosis activation among the compounds tested", "setting": "CEOs in the presence of Hx", "result": "the most efficient compound tested"}, {"measurement": "meiosis activation in CEOs monitored by GVB and PB (FIG. 2)", "setting": "at 1 μM (p<0.01; n=10), 3 μM (p<0.05; n=7) and 10 μM (p<0.001; n=6)", "result": "significantly improved meiosis activation"}]}]}
